What was measured:
[1] = system: primary human keratinocytes; test: Western blotting of CKI-treated primary human keratinocytes; type: cell-based; conditions: 72 hours
Method: FIGS. 4A to 4G show the effect of CKI treatment on human primary keratinocytes and melanocytes. […] In FIG. 4B, the primary human keratinocytes were treated with indicated concentrations of CKI when the cell confluence was 90%. […] Statistical results from a total of 3 independent experiments were determined with unpaired t-test analysis and shown as mean±SD. “NS” indicates no significant difference and asterisks *** indicates a significant difference with P<0.001. In FIGS. 4D and 4E, the primary melanocytes were cultured in conditional medium that have cultured keratinocytes for 3 days and treated with or without CKI.
FIGS. 7A to 7C show the effects of additional casein kinase 1 inhibitors including A51, CKI7, D4476 and IC261 on the Kit pathway and melanogenesis-related protein expression levels of human keratinocytes.
(§1) Western blot For experiments involving tissues, the tissues were homogenized and lysed in 1x tissue protein extraction reagent (Thermo Fisher) containing protease inhibitor (Millipore) and kept on ice; for experiments involving cells, cell pellet was collected and lysed in 1x radioimmunoprecipitation assay (RIPA) lysis buffer containing protease inhibitor (Millipore) and kept on ice. The total protein concentration was determined using Protein Assay Dye Reagent Concentrate (Bio-Rad) following manufacturer's instruction with a microplate reader. Sample was diluted in SDS-PAGE Sample Buffer (Bio-Rad) and heated at 95° C. for 5 minutes. The protein sample was then resolved on SDS-PAGE gels (TGX FastCast acrylamide solutions, Bio-Rad) and transferred onto poly(vinylidene fluoride) (PVDF) membranes (Millipore). 5% BSA was used, and then the membranes were incubated with primary antibodies overnight at 4° C. The membranes were then washed by Tris-buffered saline with Tween 20 (TBST) and incubated with secondary antibodies for 1 hour at room temperature. The signal was detected using iBright FL1000 Imaging System from Thermo Fisher Scientific.
Cell culture Human keratinocyte and melanocyte were cultured from human foreskin. The keratinocyte was cultured with keratinocyte serum-free medium (SFM), or K-SFM, which is a complete serum-free medium and supplemented with human recombinant epidermal growth factor (rEGF) and bovine pituitary extract (BPE) (Gibco, 17005042) at the time of use. Melanocyte was cultured with Medium 254 containing human melanocyte growth supplement (HMGS) (Gibco, M254500). The culture was maintained at 37° C. and in 5% CO2. Keratinocyte Kit ligand secretion was detected by Human SCF ELISA Kit (Abcam, ab176109). All of the procedures followed manufacturer's instruction.
In skin, keratinocyte interacts with melanocyte through a system of paracrine growth factors and cell-cell adhesion junction for a stable skin homeostatic balance. In this embodiment, primary cultures of keratinocyte and melanocyte were prepared from human foreskin. The primary human keratinocytes were treated with indicated concentration of CKI for 3 days, and the conditional medium was collected and used to treat melanocytes for 3 days.
Additional casein kinase 1 inhibitors were used to examine their effects on KitL production with human keratinocyte cultures. […] A51 was a CKI gifted by Dr. Yinon Ben-Neriah, and […] (Sigma-Aldrich D1944) and IC261 (Sigma-Aldrich 400090) were commercially available and were dissolved in DMSO. CKI7 was another CKI commercially available (Sigma-Aldrich C0742) and was dissolved in ddH20. […] Expression of KitL was increased in CKI, CKI7, D4476 and IC261 after treatment for 72 hours, compared to DMSO or mock. Mock was a control in the experiment where the keratinocytes were neither treated with DMSO or any CKI. In FIG. 7B, it was further shown that D4476 treatment at concentrations of from 500 nM to 5,000 nM on human keratinocytes increases the expression of p53 and KitL […] in treated keratinocytes after 72 hours. […]

[2] = system: KitL/c-Kit pathway and melanocyte-related targets; test: Western blotting of ear skin, MC1R mutant mice; type: in vivo, mouse; conditions: topical, total 0.24 mg over 2 weeks, ear skin at 3rd week
Method: FIGS. 2A to 2L show the effects of CK1α ablation in keratinocytes of MC1R mutant mice and the UV protection effect of topical CKI treatment on MC1R mutant mice. […] The skin samples were treated as illustrated in the scheme and harvested after 24 hours of 750 mJ/cm^2 UVB irradiation on day 21 and stained with anti-CPD antibody for examining the DNA damage.
FIGS. 5A and 5B show the effect of D4476 and IC261 treatments on MC1R mutant mice.
as §1

human foreskin explants = test: Human skin explant: colour, Fontana-Masson staining, Melan-A and Trp-1 IHC; type: cell-based; conditions: D4476, human skin explant
Method: (§2) The specimen was cultured in the 12-well plate (N=5). After 24 hours of explant culture, the specimen was treated with 0.01 mg CKI, and another treatment of 0.01 mg CKI was given two days thereafter, as shown in the timeline. On the 5th day, the specimens were exposed under 1 J/cm^2 UVB light. Samples were harvested 6 hours later. […] Moreover, frozen embedding in OCT was also made for IHC analysis for Melan-A and Trp-1 labelling.
(§3) FIGS. 6A to 6E show the UV protection effect of topical treatment of another CKI, D4476, on human skin explants. […] FIGS. 6C and 6D show the Western blotting analysis results and the quantitated amount, respectively, of the expression levels of proteins in the c-Kit pathway and melanogenesis-related protein.
For topical use on human skin explant, a CKI solution containing 1 mg in 6 μL DMSO was diluted with 594 μL phosphate buffered saline (PBS) for further use. The final working concentration is 0.01 mg/6 μL.
Human skin explant The human foreskins were used for in vitro explant culture experiments. […]
Primary antibody was applied in 4° C. overnight, and then incubated with secondary antibody at room temperature for 30 minutes. The signal was detected by AEC+Substrate-Chromogen (K346111, Dako) or Dako REAL EnVDetectSys Perox/DAB+, Rb/M (K500711, Dako), counterstained with hematoxylin and mounted with either aqueous- or organic-based medium. […]

[3] = system: p53 and pigmentation-related proteins; test: Western blotting of human skin explant epidermis; type: cell-based; conditions: 0.1 mg of D4476, human skin explant, vs control
Text: (§4) The numbers of Melan-A+cells and Trip-1+cells and also the relative melanin intensity in the control or CKI treatment groups are quantified in the histograms. […] The asterisks *** indicated a significant difference with P<0.001.
In addition, the epidermis and dermis were separated by thermolysin. The total proteins of epidermis were extracted by T-PER Tissue Protein Extraction Reagent (78510, Thermo Fisher) for Western blotting analysis.
as §1

CPD = test: UVB-induced CPD in human skin explants; type: cell-based; conditions: 0.08 mg of D4476; 6 hours after 1,000 mJ/cm^2 UVB
Method: as §2, §4, §3
In the immunohistochemical analysis shown in FIG. 3C, both Melan-A and Trp-1, the markers for melanocyte, were found increased in the staining. […] In addition, human skin explants after topical CKI treatment were exposed to 1 J/cm^2 UVB irradiation, and collected for CPD analysis 6 hours later. […]

[4] = compared to DMSO or mock (FIG. 7A)
[5] = 500 nM to 5,000 nM, dose-independently

| SMILES | expression of KitL [1, 4] | expression of Kit-L [2] | expression of c-Kit [2] | expression of tyrosinase [2] | melanin intensity in epidermis (Fontana-Masson staining) (human foreskin explants) | KitL (Western blotting) [3] | c-Kit (Western blotting) [3] | p53 (Western blotting) [3] | tyrosinase (Western blotting) [3] | β-catenin (Western blotting) [3] | CPD staining (CPD) | expression of KitL [1, 5] | expression of p53 [1, 5] |
| --- | --- | --- | --- | --- | --- | --- | --- | --- | --- | --- | --- | --- | --- |
| NCCNS(=O)(=O)c1ccc(Cl)c2ccncc12 [CKI7] | increased |  |  |  |  |  |  |  |  |  |  |  |  |
| NC(=O)c1ccc(-c2nc(-c3ccc4c(c3)OCCO4)c(-c3ccccn3)[nH]2)cc1 [D4476] | increased | increased | increased | increased | increased | increased | increased | stabilization | increased | stabilization | reduced | increases | increases |
| COc1cc(OC)c(C=C2C(O)=Nc3ccccc32)c(OC)c1 [IC261] | increased | increased | increased | increased |  |  |  |  |  |  |  | increases | increases |
